Source: patent publication US5378846A, “1,2,3,4-tetrahydropyrrolo-[1,2-a]-pyrazine derivatives” (Russian-American Institute For New Drug Development, priority 1993, dated 1995)
Entries after “also recorded” stand apart in the source; their conditions may differ. Like-named read-outs stand apart in the source and are kept apart here.

Tests used:
[1] = test system: motor behavior in mice; experiment: Horizontal wire test (coordination of movements and myorelaxation); settings: mice
Method: (§1) The influence of Compound 1 on the motor behavior was studied according to a "rotating rod" test and a "horizontal wire" test in outbred male mice (18-22 g). A rotating rod (2 cm diameter and 5 rpm speed) was used. Acquisition was defined as the ability to remain on the rotating rod for 2 min. Each animal had two trials. According to the "horizontal wire" test a mouse was hung on the wire (0.3 cm. diameter, wire was fixed horizontally 40 cm above the floor) by the forepaws. The ability to pull the hind legs up to the wire for 2 min. was a criterion of test performance.

[2] = test system: duration of immobility in mice; experiment: Behavioural despair test (forced swimming); assay type: in vivo, outbred male mice; settings: for The duration of immobility: i.p.
Method: (§2) Compounds according to the present invention were checked for their influence on gross behaviour. The experiments described herein (Examples 11, 12, 13, 14, and 15) were carried out using outbred male mice weighing approximately 18-24 g. Each substance was administered intraperitoneally 45 min. before the experiment. Locomotor activity was estimated individually for each animal for 3 min. using an actometer `Era-1` (Russia).
The influence of compounds on behavioral despair was studied according to the model described by Porsolt et al., Arch. int. pharmacodyn.et ther., 228, 327-[…] (1977), which is incorporated herein by reference. Mice, when forced to swim in a cylinder of water without the possibility of escape, rapidly adopt a characteristic immobile posture. […] The only movements they make are those necessary to keep their heads above water.

[3] = test system: C57 B1/6 mice; experiment: Open field test, C57 B1/6 mice; assay type: in vivo, male C57 B1/6 mice; settings: for Central activity / Crosses of Squires / Emotionality (N. of defec.) / Total locomotor activity / Vert. stands: C57 B1/6, i.p.
Method: ESR indices were evaluated as changes in mice ambulations, defecations and motor activity in an "open field" test ([…]., Bull. Exp. Biol. […] Compound 1 was injected in different doses intraperitoneally 45 min. before test.

[4] = test system: rat behavior in Vogel conflict test; experiment: Vogel conflict test (anxiolytic activity, punished responses in water-deprived rats); assay type: in vivo, outbred male albino rats
Description: Compounds according to the present invention were checked for their anxiolytic activity. Behaviour suppressed by punishment is a very reliable indicator of the anxiolytic activity of drugs. A variant of the conflict situation test was used to reveal anxiety in water-deprived rats whose licking was suppressed by shock (see Vogel et al., Phychopharmacologia, 21, 1-7 (1971); J. E. Barrett in Animal Models in Psychopharmacology, Advances in Pharmacological Sciences, 1991; and Birkhauser Verlag, Basel, p. 37.52, Molodavkin et al., Exper. Clin. Pharmacol., 56, (1993), which are incorporated herein by reference).
The experiments were carried out using outbred male albino rats (180-220 g). This experiment involved previous training of water-deprived rats to drink water from a trough. Next day electrical stimulation was given delivering 0.5 mA electric shocks through the trough and metal grid floor of the experimental chamber. A conflict situation was created by clashing motivations (survival and self defense). The degree of anxiolytic activity was estimated by the measurement of the amount of punished licks for 10 min. Each compound was administered intraperitoneally 45 min. before the conflict test.

[5] = test system: motor behavior in mice; experiment: Rotating rod test (coordination of movements and myorelaxation); settings: for Disturbances according to rotating rod test, effect in %: mice
Method: as §1

[6] = test system: memory formation in rats; experiment: Passive avoidance test, step-through (memory formation, retention); assay type: in vivo, outbred male albino rats
Method: The influence of Compound 1 on memory formation was studied in a passive avoidance test, step-through paradigm (equipment of Laffaette Co., USA). The experiments were carried out on outbred male albino rats ([…]). Compound 1 and other drugs were administered intraperitoneally 45 min. before the passive avoidance training. The retention was tested 24 hours later learning (painful electroshock in the dark compartment) by the measurement of the time spent in the dark compartment for 3 min.

[7] = test system: outbred male mice; experiment: Acute toxicity in mice; settings: mouse, in vivo, ip
Method: as §2
(§3) The compounds of the present invention were checked for acute toxicity in outbred male mice (18-22 g.). They were administered intraperitoneally and the lethality was estimated 24 hours later (Table 6). In the dose range of 500-1000 mg/kg i.p. Compound 1 caused death in 50% of the animals. Compound 1 is almost 5 times less toxic than other compounds.

[8] = Acute toxicity in mice; settings: mouse, in vivo, ip, mice, i.p.
Method: as §2, §3

[9] = test system: convulsive effect of pentylenetetrazole in mice; experiment: Convulsive effect of pentylenetetrazole; assay type: in vivo, outbred male mice
Method: as §2
The influence of Compound 1 on the latency of convulsions and on the duration of animals' lives after pentylenetetrazole (130 mg/kg subcutaneously) was studied in outbred mice.

[10] = test system: locomotor activity in mice; experiment: Locomotor activity in mice (actometer); assay type: in vivo, outbred male mice; settings: for The number of movements for 3 min., horizontal activity / The number of movements for 3 min., vertical activity: i.p.
Method: as §2

[11] = rat, 5.0 mg/kg i.p., retention 24 hours later, 3 min
[12] = 10 mg/kg + pentylenetetrazole 130 mg/kg s.c.

## O=C(O)CCC(=O)O.c1cc2n(c1)CCNC2 [Compound 1, 1,2,3,4-tetrahydropyrrolo-[1,2-a]-pyrazine hydrosuccinate]
[1]; dose 5.0
  Disturbances according to horizontal wire test, effect in %: 0%
[1]; dose 10.0
  Disturbances according to horizontal wire test, effect in %: 0%
[1]; dose 20.0
  Disturbances according to horizontal wire test, effect in %: 0%
[1]; dose 40.0
  Disturbances according to horizontal wire test, effect in %: 0%
[1]; dose 80.0
  Disturbances according to horizontal wire test, effect in %: 0%
[1]; dose 250.0
  Disturbances according to horizontal wire test, effect in %: 0%
[2]; forced swimming
  Influence on duration of immobility, in words: did not show any activity; also recorded: does not change the duration of immobility
[2]; 5.0 mg/kg
  The duration of immobility: 117.3 ± 6.9 s
[2]; 10.0 mg/kg
  The duration of immobility: 110.8 ± 5.1 s
[3]; 5 mg/kg i.p.
  Open field behavior of C57 B1/6 mice, in words: caused the reduction of total ambulations inhibiting central and vertical activity. The number of defecations was not changed
[3]; 0.1 mg/kg
  Central activity: 24.2 ± 5.2
  Crosses of Squires: 74.6 ± 7.6
  Emotionality (N. of defec.): 1.0 ± 0.53
  Total locomotor activity: 114.6 ± 12.1
  Vert. stands: 15.8 ± 2.5
[3]; 1.0 mg/kg
  Central activity: 29.9 ± 5.2
  Crosses of Squires: 65.6 ± 5.5
  Emotionality (N. of defec.): 0.8 ± 0.39
  Total locomotor activity: 110.6 ± 10.9
  Vert. stands: 15.1 ± 2.0
[3]; 5.0 mg/kg
  Central activity: 11.1 ± 1.6
  Crosses of Squires: 51.7 ± 5.3
  Emotionality (N. of defec.): 0.22 ± 0.22
  Total locomotor activity: 71.7 ± 6.9
  Vert. stands: 7.8 ± 1.5
[3]; anxiolytic dose range, open field test
  Sedation in C57B1/6 mice, in words: does not cause sedation in C57B1/6 mice; also recorded: anxiolytic effect in BALB/c mice does not coincide with sedative effect in C57B 1/6 mice
[4]; 5 mg/kg i.p. once daily for 40 days
  Anxiolytic effectiveness after chronic administration, in words: anxiolytic effectiveness of Compound 1 is preserved after its chronic administration
[4]; rat, 2.0 mg/kg i.p., 45 min before test, Table 1
  The number of punished responses: 43.52 ± 14.8
[4]; rat, acute administration, 5 mg/kg, Table 3
  The number of punished responses: 49.52 ± 15.91
[4]; rat, chronic administration, 5 mg/kg i.p. once daily for 40 days, Table 3
  The number of punished responses: 85.8 ± 6.7
[4]; rat, i.p., dose 0.5 mg/kg, Table 2
  The number of punished responses: 49.88 ± 19.27
[4]; rat, i.p., dose 1.0 mg/kg, Table 2
  The number of punished responses: 41.29 ± 16.71
[4]; rat, i.p., dose 2.0 mg/kg, Table 2
  The number of punished responses: 43.52 ± 14.8
[4]; rat, i.p., dose 5.0 mg/kg, Table 2
  The number of punished responses: 29.88 ± 13.13
[4]; rat, i.p., dose 10.0 mg/kg, Table 2
  The number of punished responses: 30.88 ± 10.93
[4]; rat, i.p., Compound 1 vs diazepam: 0.5-2 mg/kg vs 1 and 2 mg/kg
  Anxiolytic effect in Vogel conflict test, in words: increase the amount of punished responses in a Vogel conflict test after acute and chronic administration; also recorded: displayed more anxiolytic effect than diazepam
[5]; dose 5.0
  Disturbances according to rotating rod test, effect in %: 0%
[5]; dose 10.0
  Disturbances according to rotating rod test, effect in %: 0%
[5]; dose 20.0
  Disturbances according to rotating rod test, effect in %: 0%
[5]; dose 40.0
  Disturbances according to rotating rod test, effect in %: 0%
[5]; dose 80.0
  Disturbances according to rotating rod test, effect in %: 0%
[5]; dose 250.0
  Disturbances according to rotating rod test, effect in %: 0%
[5]; rotating rod and horizontal wire tests, Compound 1 5-250 mg/kg
  Motor behavior disturbance and myorelaxation, in words: does not manifest amnestic and myorelaxant effects; also recorded: fails to evoke disturbances in the coordination of movements and myorelaxation
[6]; passive avoidance
  Influence on learning and memory formation, in words: able to facilitate memory trace formation; also recorded: able to facilitate the learning ability: the time spent in the dark compartment was significantly decreased
[6]; [11]
  The time spent in dark compartment: 15.9 ± 3.4 s
  The time spent in light compartment: 164.1 ± 9.4 s
[7]
  Times less toxic than other compounds: ~5 times
[8]; 24 hours, read-out: Dose range causing death in 50% of the animals
  LD50 at 24 h: 500 to 1000 mg/kg
[8]; lethality 24 hours later, Table 6 (range in brackets beside), read-out: LD50
  LD50 at 24 h: 1540 mg/kg
[9]; [12]
  Duration of animal survival: 7.3 ± 1.0 min
  Latency of clon.: 3.35 ± 0.7 min
  Latency of ton.: 7.06 ± 1.0 min
[9]; pentylenetetrazole 130 mg/kg subcutaneously
  Effect on latency of convulsions and animal survival after pentylenetetrazole, in words: increase the duration of animals' survival after pentylenetetrazole injection; also recorded: causes prolongation of the latency of convulsions and of animal survival after pentylenetetrazole
[10]; 0.1-0.3 mg/kg i.p.
  Influence on spontaneous motor activity, in words: neither stimulated nor depressed the spontaneous motor activity
[10]; 0.1 mg/kg
  The number of movements for 3 min., horizontal activity: 650.8 ± 12.5
  The number of movements for 3 min., vertical activity: 24.7 ± 2.5
[10]; 0.3 mg/kg
  The number of movements for 3 min., horizontal activity: 657.7 ± 15.5
  The number of movements for 3 min., vertical activity: 25.2 ± 4.1
